Reference: patent publication US20250163074A1, “CDK Inhibitors And Their Use As Pharmaceuticals” (Prelude Therapeutics Incorporated, priority 2020, published 2025)
Where two headings read alike, the source gives them in different places.

Tests used:
CDK6/Cyclin D1 = CDK6/Cyclin D1 (Homo sapiens (Human), UniProt Q00534); test: CDK6/CyclinD1 enzymatic activity assay (TR-FRET); format: biochemical; conditions: CDK6/Cyclin D1 1 nM, ATP 250 μM, read-out: CDK6_D1 IC50
How it was run: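 Insect-cell-expressed CDK6/Cyclin D1 (1 nM) phosphorylated ULight-4E-BP1 (100 nM) with 250 μM ATP in HEPES pH 7.4 buffer. After 20 min compound preincubation, reactions were started with 10 mM MgCl2 and run 60 min at 37 °C. EDTA-quenched samples were read by TR-FRET with Eu-anti-P-4E-BP1; IC50 from 9-dose 4-parameter fits.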

[1] = system: MCF7 adenocarcinoma cell line; test: Cell proliferation studies in MCF7 cells (ATP-Lite); format: cell-based; conditions: 10 days incubation, cell viability by ATP-Lite luminescence, read-out: PROLIFERATION_CTG_MCF7 IC50
How it was run: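 MCF7 cells, seeded at 100 or 200 cells/well, were exposed for 10 days at 37 °C to a 9-point, 3-fold dilution series in quadruplicate, with media exchange and re-dosing on day 5. Viability was read by ATP-Lite luminescence, normalized to background and DMSO, and fitted for IC50.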

CDK4/Cyclin D1 = CDK4/Cyclin D1 (Homo sapiens (Human), UniProt P11802); test: CDK4/CyclinD1 enzymatic activity assay (TR-FRET); format: biochemical; conditions: CDK4/CyclinD1 1 nM, ATP 2 mM, read-out: CDK4_D1 IC50
How it was run: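 Insect-cell CDK4/Cyclin D1 (1 nM) with ULight-4E-BP1 (100 nM) and 2 mM ATP in HEPES pH 7.4 buffer, preincubated 20 min with compound (9-dose, 3-fold dilutions); 10 mM MgCl2 started the reaction, run 60 min at 37 °C. EDTA/Eu-anti-phospho-4E-BP1 TR-FRET detection; IC50 from 4-parameter Hill fit.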

[2] = Brain-to-plasma ratio determination in Sprague-Dawley rats; format: in vivo; conditions: male Sprague-Dawley rats, four hours after a single oral dose (3, 4, 5, or 10 mg/kg); for Kp at 4 h: rat
Experimental: Example B: Brain-to-Plasma Ratio Determination in Sprague-Dawley Rats
The brain-to-plasma ratio (Kp) was determined in male Sprague-Dawley rats (7-9 weeks old) four hours after a single oral dose. Rats were acclimated and given free access to standard rodent chow and water throughout the entire study. Test articles were formulated as a solution at 0.3, 0.4, 0.5, or 1.0 mg/mL in a vehicle comprised of 10:15:75 (v:v:v) dimethylacetamide (DMA):Solutol HS15:water and delivered orally at a rate of 10 mL/kg to three rats to achieve final doses of 3, 4, 5, or 10 mg/kg, respectively. At 4 hours post-dose, blood samples were collected via jugular vein cannula into tubes containing K2EDTA as the anticoagulant and stored on ice. Blood samples were then centrifuged at 4° C. at 6000 rpm for 5 minutes, and the resulting plasma was placed into tubes and stored frozen at −80° C. until analysis. Whole brain samples were also collected at 4 hours post-dose. The weight of each brain was measured and recorded, and samples were immediately stored on dry ice. Brain samples were then transferred to storage at −80° C. until analysis.
Prior to analysis, brain samples were combined with water (4 mL/1 gram of brain) and homogenized. Prior to injection, plasma and brain homogenate samples and standards were prepared for analysis by precipitation with acetonitrile or 1:1 (v:v) methanol:acetonitrile. Samples were then thoroughly mixed, centrifuged at 4000 rpm for 15 minutes, and the resulting supernatant was transferred for analysis. Test article concentrations in plasma and brain homogenate were then determined by LC-MS/MS and quantified against calibration standards prepared to known concentrations in matched blank (analyte-free) biological matrix. The Kp was then determined by dividing the dilution-corrected brain concentration by the plasma concentration from each rat. A brain density of 1 gram/mL was assumed for all calculations.

CDK6/Cyclin D1, sequence (Q00534 whole entry): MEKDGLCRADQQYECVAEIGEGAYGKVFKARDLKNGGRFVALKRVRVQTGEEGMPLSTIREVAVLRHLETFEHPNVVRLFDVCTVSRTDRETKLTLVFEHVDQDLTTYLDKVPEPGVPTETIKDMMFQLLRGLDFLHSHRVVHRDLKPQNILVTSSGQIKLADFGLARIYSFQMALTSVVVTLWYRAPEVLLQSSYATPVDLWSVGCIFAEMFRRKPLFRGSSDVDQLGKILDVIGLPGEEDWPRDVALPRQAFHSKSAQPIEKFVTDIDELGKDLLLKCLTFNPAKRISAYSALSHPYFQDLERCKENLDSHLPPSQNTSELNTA
CDK6/Cyclin D1, sequence (P24385 whole entry partner): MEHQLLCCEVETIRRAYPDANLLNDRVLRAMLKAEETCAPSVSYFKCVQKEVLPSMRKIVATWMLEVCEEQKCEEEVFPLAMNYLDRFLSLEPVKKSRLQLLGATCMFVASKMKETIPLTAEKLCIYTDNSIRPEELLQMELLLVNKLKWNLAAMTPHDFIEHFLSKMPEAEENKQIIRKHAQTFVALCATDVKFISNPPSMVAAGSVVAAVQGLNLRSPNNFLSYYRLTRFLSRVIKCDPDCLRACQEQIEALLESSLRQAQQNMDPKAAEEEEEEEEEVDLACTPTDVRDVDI
CDK4/Cyclin D1, sequence (P11802 whole entry): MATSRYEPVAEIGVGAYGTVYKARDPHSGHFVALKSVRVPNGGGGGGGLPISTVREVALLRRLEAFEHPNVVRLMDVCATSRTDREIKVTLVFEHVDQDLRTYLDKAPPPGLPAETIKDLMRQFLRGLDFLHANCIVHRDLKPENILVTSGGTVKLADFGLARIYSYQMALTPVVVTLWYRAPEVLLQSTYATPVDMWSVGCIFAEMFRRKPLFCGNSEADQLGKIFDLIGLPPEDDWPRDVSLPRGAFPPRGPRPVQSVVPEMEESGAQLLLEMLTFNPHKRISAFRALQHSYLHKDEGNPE
CDK4/Cyclin D1, sequence (P24385 whole entry partner): as the sequence (P24385 whole entry partner) above

Row | SMILES | IC50 (CDK6/Cyclin D1) | IC50 ([1]; Homo sapiens, 240 h) | IC50 (CDK4/Cyclin D1) | Kp at 4 h [2] | IC50 [1] | Kp [2]
1 | Cc1c(-c2nc(Nc3ccc(C4CCN(C(C)C)C4)cn3)ncc2F)sc2c1C(=O)N(C)C21CC1 (stereo not drawn) [Example 16, 2′-(5-Fluoro-2-((5-(1-isopropylpyrrolidin-3-yl)pyridin-2-yl)amino)pyrimidin-4-yl)-3′,5′-dimethylspiro[cyclopropane-1,6′-thieno[2,3-c]pyrrol]-4′(5′H)-one] | ≤ 20 nM | 20 to 200 nM | ≤ 20 nM | < 1 | – | –
2 | CCN1CC2(C1)CN(c1ccc(Nc3ncc(F)c(-c4cc5c(s4)C4(CCCC4)N(C)C5=O)n3)nc1)C2 [Example 24] | ≤ 20 nM | – | ≤ 20 nM | – | 20 to 200 nM | ++ (a “++” denotes 1.0 ≤ Kp < 3.0)
3 | Cc1c(-c2nc(Nc3ccc(C4CCN(C)CC4)cn3)ncc2F)sc2c1C(=O)N(C)C21CCCC1 [Example 25, 2′-(5-Fluoro-2-((5-(1-methylpiperidin-4-yl)pyridin-2-yl)amino)pyrimidin-4-yl)-3′,5′-dimethylspiro[cyclopentane-1,6′-thieno[2,3-c]pyrrol]-4′(5′H)-one] | ≤ 20 nM | ≤ 20 nM | ≤ 20 nM | 1 to 3 | – | –
4 | Cc1c(-c2nc(Nc3ccc(C4CCN(C)CC4)cn3)ncc2F)sc2c1C(=O)N(C)CC21CC1 [Example 28] | ≤ 20 nM | 20 to 200 nM | ≤ 20 nM | ≥ 3 | – | –
5 | Cc1c(-c2nc(Nc3ccc(N4CC5(CCN(C)C5)C4)cn3)ncc2F)sc2c1C(=O)N(C)CC21CC1 [Example 35] | ≤ 20 nM | ≤ 20 nM | ≤ 20 nM | 1 to 3 | – | –
6 | CCN1CC2(C1)CN(c1ccc(Nc3ncc(C)c(-c4cc5c(s4)C4(CC4)CN(C)C5=O)n3)nc1)C2 [Example 41, 2-[2-[[5-(6-Ethyl-2,6-diazaspiro[3.3]heptan-2-yl)pyridin-2-yl]amino]-5-methylpyrimidin-4-yl]-5-methylspiro[6H-thieno[3,2-c]pyridine-7,1′-cyclopropane]-4-one] | ≤ 20 nM | ≤ 20 nM | ≤ 20 nM | < 1 | – | –
7 | CN1CCC(c2ccc(Nc3ncc(F)c(-c4cc5c(s4)C4(CCC4)CN(C)C5=O)n3)nc2)CC1 [Example 47, 2′-(5-Fluoro-2-((5-(1-methyl-piperidin-4-yl)pyridin-2-yl)amino)pyrimidin-4-yl)-5′-methyl-5′,6′-dihydro-4′H-spiro[cyclobutane-1,7′-thieno[3,2-c]pyridin]-4′-one] | 20 to 200 nM | 20 to 200 nM | ≤ 20 nM | 1 to 3 | – | –
8 | Cc1c(-c2nc(Nc3ccc(C4CCN(C)CC4)cn3)ncc2F)sc2c1C(=O)N(C)CC21CCC1 [Example 48, 2′-(5-Fluoro-2-((5-(1-methyl-piperidin-4-yl)pyridin-2-yl)amino)pyrimidin-4-yl)-3′,5′-dimethyl-5′,6′-dihydro-4′H-spiro[cyclobutane-1,7′-thieno[3,2-c]pyridin]-4′-one] | ≤ 20 nM | 20 to 200 nM | ≤ 20 nM | ≥ 3 | – | –
9 | Cc1c(-c2nc(Nc3ccc(N4CCC5(CCN(C)C5)C4)cn3)ncc2F)sc2c1C(=O)N(C)CC21CCC1 (stereo not drawn) [Example 55, 2′-(5-Fluoro-2-((5-(7-methyl-2,7-diazaspiro[4.4]nonan-2-yl)pyridin-2-yl)amino)pyrimidin-4-yl)-3′,5′-dimethyl-5′,6′-dihydro-4′H-spiro[cyclobutane-1,7′-thieno[3,2-c]pyridin]-4′-one] | ≤ 20 nM | 20 to 200 nM | ≤ 20 nM | < 1 | – | –
10 | CCN1CC2(C1)CN(c1ccc(Nc3ncc(F)c(-c4ccc5c(c4)C4(CCCC4)CN(C)C5=O)n3)nc1)C2 [Example 66, 6′-(2-((5-(6-Ethyl-2,6-diazaspiro[3.3]heptan-2-yl)pyridin-2-yl)amino)-5-fluoropyrimidin-4-yl)-2′-methyl-2′,3′-dihydro-1′H-spiro[cyclopentane-1,4′-isoquinolin]-1′-one] | 20 to 200 nM | 20 to 200 nM | ≤ 20 nM | 1 to 3 | – | –
11 | CCN1CCC(c2ccc(Nc3ncc(F)c(-c4sc5c(c4C)C(=O)N(C)C54CC4)n3)nc2)C1 (stereo not drawn) [Example 71, 2′-[2-[[5-(1-Ethylpyrrolidin-3-yl)pyridin-2-yl]amino]-5-fluoropyrimidin-4-yl]-3′,5′-dimethylspiro[cyclopropane-1,6′-thieno[2,3-c]pyrrole]-4′-one] | ≤ 20 nM | 20 to 200 nM | ≤ 20 nM | 1 to 3 | – | –

Other lines, results leading:

Row | IC50 (CDK6/Cyclin D1) | IC50 ([1]; Homo sapiens, 240 h) | IC50 (CDK4/Cyclin D1) | Kp at 4 h [2] | IC50 [1] | Kp [2] | SMILES
12 | ≤ 20 nM | ≤ 20 nM | ≤ 20 nM | ≥ 3 | – | – | CN1CCC(c2ccc(Nc3ncc(F)c(-c4cc5c(s4)C4(CCCC4)N(C)C5=O)n3)nc2)CC1 [Example 20, 2′-(5-Fluoro-2-((5-(1-methylpiperidin-4-yl)pyridin-2-yl)amino)pyrimidin-4-yl)-5′-methylspiro[cyclopentane-1,6′-thieno[2,3-c]pyrrol]-4′(5′H)-one]
13 | 20 to 200 nM | 20 to 200 nM | ≤ 20 nM | 1 to 3 | – | – | CN1CCC(c2ccc(Nc3ncc(F)c(-c4cc5c(s4)C4(CC4)CN(C)C5=O)n3)nc2)CC1 [Example 29, 2′-(5-Fluoro-2-((5-(1-methyl-piperidin-4-yl)pyridin-2-yl)amino)pyrimidin-4-yl)-5′-methyl-5′,6′-dihydro-4′H-spiro[cyclo-propane-1,7′-thieno[3,2-c]pyridin]-4′-one]
14 | ≤ 20 nM | 20 to 200 nM | ≤ 20 nM | 1 to 3 | – | – | CCN1C[C@H]2CN(c3ccc(Nc4ncc(F)c(-c5sc6c(c5C)C(=O)N(C)CC65CC5)n4)nc3)C[C@@H]2C1 [Example 39, 2′-(2-((5-((3aS,6aS)-5-Ethylhexahydropyrrolo[3,4-c]pyrrol-2(1H)-yl)pyridin-2-yl)amino)-5-fluoropyrimidin-4-yl)-3′,5′-dimethyl-5′,6′-dihydro-4′H-spiro[cyclopropane-1,7′-thieno[3,2-c]pyridin]-4′-one]
15 | ≤ 20 nM | 20 to 200 nM | ≤ 20 nM | ≥ 3 | – | – | CN1CCN(c2ccc(Nc3ncc(F)c(-c4cc5c(s4)C4(CCC4)CN(C)C5=O)n3)nc2)CC1 [Example 50, 2′-(5-Fluoro-2-((5-(4-methyl-piperazin-1-yl)pyridin-2-yl)amino)pyrimidin-4-yl)-5′-methyl-5′,6′-dihydro-4′H-spiro[cyclobutane-1,7′-thieno[3,2-c]pyridin]-4′-one]
16 | ≤ 20 nM | ≤ 20 nM | ≤ 20 nM | 1 to 3 | – | – | Cc1cnc(Nc2ccc(C3CCN(C)CC3)cn2)nc1-c1cc2c(s1)C1(CCC1)CN(C)C2=O [Example 59, 5-Methyl-2-[5-methyl-2-[[5-(1-methylpiperidin-4-yl)pyridin-2-yl]amino]pyrimidin-4-yl]spiro[6H-thieno[3,2-c]pyridine-7,1′-cyclobutane]-4-one]
17 | ≤ 20 nM | 20 to 200 nM | ≤ 20 nM | ≥ 3 | – | – | Cc1c(-c2nc(Nc3ccc(C4CCN(C)CC4)cn3)ncc2F)sc2c1C(=O)N(C)CC21CCCC1 [Example 63, 2′-(5-Fluoro-2-((5-(1-methyl-piperidin-4-yl)pyridin-2-yl)amino)pyrimidin-4-yl)-3′,5′-dimethyl-5′,6′-dihydro-4′H-spiro[cyclopentane-1,7′-thieno[3,2-c]pyridin]-4′-one]
18 | 20 to 200 nM | 20 to 200 nM | ≤ 20 nM | ≥ 3 | – | – | CN1CCC(c2ccc(Nc3ncc(F)c(-c4ccc5c(c4)C4(CCCC4)CN(C)C5=O)n3)nc2)CC1 [Example 67, 6′-(5-Fluoro-2-((5-(1-methyl-piperidin-4-yl)pyridin-2-yl)amino)pyrimidin-4-yl)-2′-methyl-2′,3′-dihydro-1′H-spiro[cyclopentane-1,4′-isoquinolin]-1′-one]
